# Source: patent US11857519B2, “Compounds and methods for the targeted degradation of enhancer of zeste homolog 2 polypeptide” (Arvinas Operations, Inc., priority 2016, dated 2024)
# Target: T1, EZH2 (Homo sapiens, UniProt Q15910)
# T1 construct: Protocol of the Cellular Assay of Target Protein Degradation (VCaP Cells, ELISA); endogenous in cells; host or cells: VCaP cells
# Experiment: Cellular assay of target protein degradation (VCaP cells, ELISA)
# Format: cell-based
# Conditions: 4 hours, protein degradation range at indicated concentration (relative to DMSO control)
# Method in brief: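 EZH2 level measured by sandwich ELISA (TMB, A450 minus A562 background) in lysates of VCaP cells. Cells had been cultured at least 3 days in 5% CSS RPMI before 4 h compound exposure in 0.1% DMSO.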
# T1 sequence (Q15910 whole entry): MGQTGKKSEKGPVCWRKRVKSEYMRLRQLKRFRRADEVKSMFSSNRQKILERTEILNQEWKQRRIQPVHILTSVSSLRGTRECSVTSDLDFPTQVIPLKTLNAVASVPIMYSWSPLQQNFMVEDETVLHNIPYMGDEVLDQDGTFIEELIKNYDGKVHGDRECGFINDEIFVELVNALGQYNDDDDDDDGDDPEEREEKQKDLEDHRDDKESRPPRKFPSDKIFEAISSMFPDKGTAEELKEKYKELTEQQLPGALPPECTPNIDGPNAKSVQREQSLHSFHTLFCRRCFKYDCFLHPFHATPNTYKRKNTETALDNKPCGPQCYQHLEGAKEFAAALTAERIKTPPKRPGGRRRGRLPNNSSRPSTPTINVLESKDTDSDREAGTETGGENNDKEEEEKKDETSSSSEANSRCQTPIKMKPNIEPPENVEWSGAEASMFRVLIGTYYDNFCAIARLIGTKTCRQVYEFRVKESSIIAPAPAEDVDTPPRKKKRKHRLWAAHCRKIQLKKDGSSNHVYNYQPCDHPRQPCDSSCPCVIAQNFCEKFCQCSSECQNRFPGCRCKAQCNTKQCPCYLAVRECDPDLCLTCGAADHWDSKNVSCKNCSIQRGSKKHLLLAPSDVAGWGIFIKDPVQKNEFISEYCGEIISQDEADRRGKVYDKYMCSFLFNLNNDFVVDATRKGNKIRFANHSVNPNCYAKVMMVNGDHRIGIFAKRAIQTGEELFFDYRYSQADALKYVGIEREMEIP
# T1 sequence (O75530 whole entry partner): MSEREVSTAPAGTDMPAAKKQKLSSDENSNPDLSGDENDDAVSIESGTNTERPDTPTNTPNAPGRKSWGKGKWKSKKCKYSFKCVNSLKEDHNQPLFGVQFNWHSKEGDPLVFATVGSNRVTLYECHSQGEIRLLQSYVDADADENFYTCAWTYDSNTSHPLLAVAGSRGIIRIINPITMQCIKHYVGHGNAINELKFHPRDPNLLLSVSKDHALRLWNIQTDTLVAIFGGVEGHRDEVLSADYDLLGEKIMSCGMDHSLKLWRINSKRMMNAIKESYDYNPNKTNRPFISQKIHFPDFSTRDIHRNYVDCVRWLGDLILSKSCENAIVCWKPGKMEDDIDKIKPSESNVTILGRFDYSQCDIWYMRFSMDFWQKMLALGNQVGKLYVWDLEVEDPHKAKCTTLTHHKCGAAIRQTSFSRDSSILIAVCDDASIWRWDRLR
# T1 sequence (Q15022 whole entry partner): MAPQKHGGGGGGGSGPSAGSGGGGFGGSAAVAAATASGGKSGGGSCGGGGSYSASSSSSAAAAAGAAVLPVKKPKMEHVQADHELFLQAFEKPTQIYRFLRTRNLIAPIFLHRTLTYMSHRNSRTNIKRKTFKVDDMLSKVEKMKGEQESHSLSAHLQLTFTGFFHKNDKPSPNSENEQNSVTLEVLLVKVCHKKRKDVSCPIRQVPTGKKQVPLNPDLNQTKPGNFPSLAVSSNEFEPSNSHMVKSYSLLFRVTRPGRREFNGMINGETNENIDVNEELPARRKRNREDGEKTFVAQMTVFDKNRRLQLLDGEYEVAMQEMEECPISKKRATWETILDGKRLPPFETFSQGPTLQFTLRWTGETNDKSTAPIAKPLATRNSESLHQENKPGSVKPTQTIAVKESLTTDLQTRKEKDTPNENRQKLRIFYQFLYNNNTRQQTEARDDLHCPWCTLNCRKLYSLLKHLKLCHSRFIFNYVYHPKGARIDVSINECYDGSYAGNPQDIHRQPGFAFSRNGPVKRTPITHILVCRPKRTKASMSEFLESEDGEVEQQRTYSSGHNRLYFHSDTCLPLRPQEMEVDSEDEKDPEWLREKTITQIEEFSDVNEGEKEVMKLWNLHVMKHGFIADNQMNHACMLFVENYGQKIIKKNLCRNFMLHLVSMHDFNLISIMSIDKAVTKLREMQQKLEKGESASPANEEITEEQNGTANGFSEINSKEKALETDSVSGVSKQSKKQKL
row,percent target protein degradation class,Compound
1,B (B = degradation between 30% and 60%),"CCN(c1cc(-c2ccc(N3CCN(CCCOCCOCC(=O)N[C@H](C(=O)N4C[C@H](O)C[C@H]4C(=O)N[C@@H](C)c4ccc(-c5scnc5C)cc4)C(C)(C)C)CC3)cc2)cc(C(=O)NCc2c(C)cc(C)[nH]c2=O)c1C)C1CCOCC1 [Compound 119, (2S,4R)-1-((S)-2-(2-(2-(3-(4-(3′-(((4,6-dimethyl-2-oxo-1,2-dihydropyridin-3-yl)methyl)carbamoyl)-5′-(ethyl(tetrahydro-2H-pyran-4-yl)amino)-4′-methyl-[1,1′-biphenyl]-4-yl)piperazin-1-yl)propoxy)ethoxy)acetamido)-3,3-dimethylbutanoyl)-4-hydroxy-N-((S)-1-(4-(4-methylthiazol-5-yl)phenyl)ethyl)pyrrolidine-2-carboxamide]"
2,B (B = degradation between 30% and 60%),"CCN(c1cc(-c2ccc(OCCCOCCOCCOc3cc(-c4scnc4C)ccc3CNC(=O)[C@@H]3C[C@@H](O)CN3C(=O)[C@H](C(C)C)N3Cc4ccccc4C3=O)cc2)cc(C(=O)NCc2c(C)cc(C)[nH]c2=O)c1C)C1CCOCC1 [Compound 54, (2S,4R)-N-({2-[2-(2-{3-[4-(3-{[(4,6-dimethyl-2-oxo-1,2-dihydropyridin-3-yl)methyl]carbamoyl}-5-[ethyl(oxan-4-yl)amino]-4-methylphenyl)phenoxy]propoxy}ethoxy)ethoxy]-4-(4-methyl-1,3-thiazol-5-yl)phenyl}methyl)-4-hydroxy-1-[(2S)-3-methyl-2-(1-oxo-2,3-dihydro-1H-isoindol-2-yl)butanoyl]pyrrolidine-2-carboxamide]"
3,A (A = degradation more than 60%),CCN(c1cc(-c2ccc(CCCOCCOCC(=O)N[C@H](C(=O)N3C[C@H](O)C[C@H]3C(=O)N[C@@H](C)c3ccc(-c4scnc4C)cc3)C(C)(C)C)cc2)cc(C(=O)NCc2c(C)cc(C)[nH]c2=O)c1C)C1CCOCC1 [Compound 89]
4,B (B = degradation between 30% and 60%),"CCN(c1cc(-c2ccc(CN3CCN(CC4CCN(c5ccc6c(c5)C(=O)N(C5CCC(=O)NC5=O)C6=O)CC4)CC3)cc2)cc(C(=O)NCc2c(C)cc(C)[nH]c2=O)c1C)C1CCOCC1 (centres unmarked) [Compound 113, N-((4,6-dimethyl-2-oxo-1,2-dihydropyridin-3-yl)methyl)-4′-((4-((1-(2-(2,6-dioxopiperidin-3-yl)-1,3-dioxoisoindolin-5-yl)piperidin-4-yl)methyl)piperazin-1-yl)methyl)-5-(ethyl(tetrahydro-2H-pyran-4-yl)amino)-4-methyl-[1,1′-biphenyl]-3-carboxamide]"
5,A (A = degradation more than 60%),"CCN(c1cc(-c2ccc(OCCCCCOCCOc3cc(-c4scnc4C)ccc3CNC(=O)[C@@H]3C[C@@H](O)CN3C(=O)[C@H](C(C)C)N3Cc4ccccc4C3=O)cc2)cc(C(=O)NCc2c(C)cc(C)[nH]c2=O)c1C)C1CCOCC1 [Compound 50, (2S,4R)-N-({2-[2-({5-[4-(3-{[(4,6-dimethyl-2-oxo-1,2-dihydropyridin-3-yl)methyl]carbamoyl}-5-[ethyl(oxan-4-yl)amino]-4-methylphenyl)phenoxy]pentyl}oxy)ethoxy]-4-(4-methyl-1,3-thiazol-5-yl)phenyl}methyl)-4-hydroxy-1-[(2S)-3-methyl-2-(1-oxo-2,3-dihydro-1H-isoindol-2-yl)butanoyl]pyrrolidine-2-carboxamide]"
6,B (B = degradation between 30% and 60%),"CCN(c1cc(-c2ccc(OCCCOc3cc(-c4scnc4C)ccc3CNC(=O)[C@@H]3C[C@@H](O)CN3C(=O)[C@H](C(C)C)N3Cc4ccccc4C3=O)cc2)cc(C(=O)NCc2c(C)cc(C)[nH]c2=O)c1C)C1CCOCC1 [Compound 90, (2S,4R)-N-(2-(3-((3′-(((4,6-dimethyl-2-oxo-1,2-dihydropyridin-3-yl)methyl)carbamoyl)-5′-(ethyl(tetrahydro-2H-pyran-4-yl)amino)-4′-methyl-[1,1′-biphenyl]-4-yl)oxy)propoxy)-4-(4-methylthiazol-5-yl)benzyl)-4-hydroxy-1-((S)-3-methyl-2-(1-oxoisoindolin-2-yl)butanoyl)pyrrolidine-2-carboxamide]"
7,B (B = degradation between 30% and 60%),"CCN(c1cc(-c2ccc(OCCCOc3ccc4c(c3)C(=O)N([C@H](C(=O)N3C[C@H](O)C[C@H]3C(=O)N[C@@H](C)c3ccc(-c5scnc5C)cc3)C(C)C)C4)cc2)cc(C(=O)NCc2c(C)cc(C)[nH]c2=O)c1C)C1CCOCC1 [Compound 98, (2S,4R)-1-((S)-2-(6-(3-((3′-(((4,6-dimethyl-2-oxo-1,2-dihydropyridin-3-yl)methyl)carbamoyl)-5′-(ethyl(tetrahydro-2H-pyran-4-yl)amino)-4′-methyl-[1,1′-biphenyl]-4-yl)oxy)propoxy)-1-oxoisoindolin-2-yl)-3-methylbutanoyl)-4-hydroxy-N-((S)-1-(4-(4-methylthiazol-5-yl)phenyl)ethyl)pyrrolidine-2-carboxamide]"

# Second part, the compound before the results:
row,Compound,percent target protein degradation class
1,"CCN(c1cc(-c2ccc(OCCOCCNc3cccc4c3C(=O)N(C3CCC(=O)NC3=O)C4=O)cc2)cc(C(=O)NCc2c(C)cc(C)[nH]c2=O)c1C)C1CCOCC1 (centres unmarked) [Compound 34, N-[(4,6-dimethyl-2-oxo-1,2-dihydropyridin-3-yl)methyl]-5-{4-[2-(2-{[2-(2,6-dioxopiperidin-3-yl)-1,3-dioxo-2,3-dihydro-1H-isoindol-4-yl]amino}ethoxy)ethoxy]phenyl}-3-[ethyl(oxan-4-yl)amino]-2-methylbenzamide]",B (B = degradation between 30% and 60%)
2,"CCN(c1cc(-c2ccc(OCCCOCCCCOc3cc(-c4scnc4C)ccc3CNC(=O)[C@@H]3C[C@@H](O)CN3C(=O)[C@H](C(C)C)N3Cc4ccccc4C3=O)cc2)cc(C(=O)NCc2c(C)cc(C)[nH]c2=O)c1C)C1CCOCC1 [Compound 51, (2S,4R)-N-{[2-(4-{3-[4-(3-{[(4,6-dimethyl-2-oxo-1,2-dihydropyridin-3-yl)methyl]carbamoyl}-5-[ethyl(oxan-4-yl)amino]-4-methylphenyl)phenoxy]propoxy}butoxy)-4-(4-methyl-1,3-thiazol-5-yl)phenyl]methyl}-4-hydroxy-1-[(2S)-3-methyl-2-(1-oxo-2,3-dihydro-1H-isoindol-2-yl)butanoyl]pyrrolidine-2-carboxamide]",B (B = degradation between 30% and 60%)
3,"CCN(c1cc(-c2ccc(OCCCCCOc3cc(C(C(=O)N4C[C@H](O)C[C@H]4C(=O)N[C@@H](C)c4ccc(-c5scnc5C)cc4)C(C)C)on3)cc2)cc(C(=O)NCc2c(C)cc(C)[nH]c2=O)c1C)C1CCOCC1 (stereo partly drawn) [Compound 104, (2S,4R)-1-(2-(3-(5-(3′-((4,6-dimethyl-2-oxo-1,2-dihydropyridin-3-yl)methylcarbamoyl)-5′-(ethyl(tetrahydro-2H-pyran-4-yl)amino)-4′-methylbiphenyl-4-yloxy)pentyloxy)isoxazol-5-yl)-3-methylbutanoyl)-4-hydroxy-N—((S)-1-(4-(4-methylthiazol-5-yl)phenyl)ethyl)pyrrolidine-2-carboxamide]",A (A = degradation more than 60%)
4,"Cc1cc(C)c(CNC(=O)c2cc(-c3ccc(CN4CCN(CCOCCOCC(=O)N[C@H](C(=O)N5C[C@H](O)C[C@H]5C(=O)NCc5ccc(-c6scnc6C)cc5)C(C)(C)C)CC4)cc3)cc3c2ccn3C2CCCC2)c(=O)[nH]1 [Compound 2, 1-cyclopentyl-N-[(4,6-dimethyl-2-oxo-1,2-dihydropyridin-3-yl)methyl]-6-{4-[(4-{2-[2-({[(2S)-1-[(2S,4R)-4-hydroxy-2-({[4-(4-methyl-1,3-thiazol-5-yl)phenyl]methyl}carbamoyl)pyrrolidin-1-yl]-3,3-dimethyl-1-oxobutan-2-yl]carbamoyl}methoxy)ethoxy]ethyl)piperazin-1-yl)methyl]phenyl}-1H-indole-4-carboxamide]",B (B = degradation between 30% and 60%)
5,"CCN(c1cc(-c2ccc(OCCCCCOCC(=O)N[C@H](C(=O)N3C[C@H](O)C[C@H]3C(=O)NCc3ccc(-c4scnc4C)cc3)C(C)(C)C)cc2)cc(C(=O)NCc2c(C)cc(C)[nH]c2=O)c1C)C1CCOCC1 [Compound 46, (2S,4R)-1-[(2S)-2-[2-({5-[4-(3-{[(4,6-dimethyl-2-oxo-1,2-dihydropyridin-3-yl)methyl]carbamoyl}-5-[ethyl(oxan-4-yl)amino]-4-methylphenyl)phenoxy]pentyl}oxy)acetamido]-3,3-dimethylbutanoyl]-4-hydroxy-N-{[4-(4-methyl-1,3-thiazol-5-yl)phenyl]methyl}pyrrolidine-2-carboxamide]",A (A = degradation more than 60%)
6,"CCN(c1cc(-c2ccc(OCCOCCOCCOCCOCCOCCNc3cccc4c3C(=O)N(C3CCC(=O)NC3=O)C4=O)cc2)cc(C(=O)NCc2c(C)cc(C)[nH]c2=O)c1C)C1CCOCC1 (centres unmarked) [Compound 19, N-[(4,6-dimethyl-2-oxo-1,2-dihydropyridin-3-yl)methyl]-5-[4-({1-[2-(2,6-dioxopiperidin-3-yl)-1,3-dioxo-2,3-dihydro-1H-isoindol-4-yl]-4,7,10,13,16-pentaoxa-1-azaoctadecan-18-yl}oxy)phenyl]-3-[ethyl(oxan-4-yl)amino]-2-methylbenzamide]",B (B = degradation between 30% and 60%)
7,"(2R,3S,4R,5S)-3-(3-chloro-2- fluorophenyl)-4-(4-chloro-2- fluorophenyl)-4-cyano-N-[4- ({1-[4-(3-{[(4,6-dimethyl-2- oxo-1,2-dihydropyridin-3- yl)methyl]carbamoyl}-5- [ethyl(oxan-4-yl)amino]-4- methylphenyl)phenyl- 1,4,7,10,13,16- hexaoxaoctadecan-18- yl}carbamoyl)-2- methoxyphenyl]-5-(2,2- dimethylpropyl)pyrrolidine-2- carboxamide [Compound 27]",B (B = degradation between 30% and 60%)
